Results taken from ChEMBL document CHEMBL1142377, “Discovery of a novel class of 1,3-dioxane-2-carboxylic acid derivatives as subtype-selective peroxisome proliferator-activated receptor alpha (PPARalpha) agonists” (Bioorg Med Chem Lett, 2008).
pEC50: −log10 of the molar value.

What was measured:
[1] = target: T1, Peroxisome proliferator-activated receptor delta (Homo sapiens) (UniProt Q03181); experiment: Agonist activity at human PPARdelta expressed in monkey CV1 cells at 10 uM by transactivation assay; format: functional, cell-based; settings: CV-1
T1 sequence (whole entry): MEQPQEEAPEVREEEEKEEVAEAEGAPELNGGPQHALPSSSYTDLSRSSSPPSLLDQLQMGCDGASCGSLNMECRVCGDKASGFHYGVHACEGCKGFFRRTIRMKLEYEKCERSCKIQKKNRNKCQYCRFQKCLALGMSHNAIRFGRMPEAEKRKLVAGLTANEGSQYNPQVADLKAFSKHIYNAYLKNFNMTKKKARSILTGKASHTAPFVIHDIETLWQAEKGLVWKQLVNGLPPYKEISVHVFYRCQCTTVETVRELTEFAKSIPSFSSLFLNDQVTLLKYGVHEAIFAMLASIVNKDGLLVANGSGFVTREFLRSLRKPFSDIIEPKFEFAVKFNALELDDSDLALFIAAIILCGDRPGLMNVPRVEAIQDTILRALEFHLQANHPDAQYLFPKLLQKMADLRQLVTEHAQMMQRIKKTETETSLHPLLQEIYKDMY

[2] = target: T2, Peroxisome proliferator-activated receptor gamma (Homo sapiens, UniProt P37231)
T2 sequence (P37231 whole entry): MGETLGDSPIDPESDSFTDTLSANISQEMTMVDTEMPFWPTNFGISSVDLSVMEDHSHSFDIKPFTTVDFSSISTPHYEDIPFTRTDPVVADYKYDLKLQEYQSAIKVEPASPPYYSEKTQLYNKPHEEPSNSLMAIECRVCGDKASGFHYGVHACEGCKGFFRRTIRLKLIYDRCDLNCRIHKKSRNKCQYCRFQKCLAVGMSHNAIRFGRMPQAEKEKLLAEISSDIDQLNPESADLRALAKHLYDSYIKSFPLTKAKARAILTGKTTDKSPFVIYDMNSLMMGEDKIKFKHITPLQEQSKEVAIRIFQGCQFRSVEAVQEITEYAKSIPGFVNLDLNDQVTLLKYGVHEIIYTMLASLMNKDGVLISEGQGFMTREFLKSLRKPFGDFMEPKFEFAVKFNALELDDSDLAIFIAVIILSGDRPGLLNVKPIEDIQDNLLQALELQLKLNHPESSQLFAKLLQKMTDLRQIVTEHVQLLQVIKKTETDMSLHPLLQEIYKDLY

[3] = target: T3, Peroxisome proliferator-activated receptor alpha (Homo sapiens, UniProt Q07869); experiment: Agonist activity at human PPARalpha expressed in monkey CV1 cells by transactivation assay; format: functional, cell-based, CV-1
T3 sequence (Q07869 whole entry): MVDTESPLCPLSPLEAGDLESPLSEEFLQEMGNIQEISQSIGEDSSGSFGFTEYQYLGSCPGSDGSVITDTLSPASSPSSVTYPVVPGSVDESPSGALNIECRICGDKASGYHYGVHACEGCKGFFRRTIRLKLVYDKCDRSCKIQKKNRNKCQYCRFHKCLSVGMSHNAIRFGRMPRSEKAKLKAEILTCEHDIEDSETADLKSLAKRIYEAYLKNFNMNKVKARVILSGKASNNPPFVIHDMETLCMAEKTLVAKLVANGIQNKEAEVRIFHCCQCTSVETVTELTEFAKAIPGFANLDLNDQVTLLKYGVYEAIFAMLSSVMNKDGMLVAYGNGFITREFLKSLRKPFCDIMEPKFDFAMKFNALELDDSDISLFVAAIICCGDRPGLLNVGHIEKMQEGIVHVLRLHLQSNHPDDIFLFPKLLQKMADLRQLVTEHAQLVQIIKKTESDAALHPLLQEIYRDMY

[4] = target: T4, Peroxisome proliferator-activated receptor gamma (Homo sapiens) (UniProt P37231); experiment: Agonist activity at human PPARgamma expressed in monkey CV1 cells at 10 uM by transactivation assay; format: functional, cell-based; settings: CV-1
T4 sequence (whole entry): T2 sequence (P37231 whole entry)

Mus musculus [5] = experiment: Hypolipidemic effect on diabetic KKAy mouse model assessed as increase in HDL cholesterol level at 300 mg/kg, po QD for 4 days; format: functional
Mus musculus [6] = experiment: Hypoglycemic effect on diabetic KKAy mouse model assessed as reduction of plasma glucose level at 300 mg/kg, po QD for 4 days; format: functional; parameters: scale not given: the % may be the effect or the level left
Mus musculus [7] = experiment: Hypolipidemic effect on diabetic KKAy mouse model assessed as reduction of plasma triglyceride level at 300 mg/kg, po QD for 4 days; format: functional; parameters: scale not given: the % may be the effect or the level left
Mus musculus [8] = experiment: Hypolipidemic effect on diabetic KKAy mouse model assessed as reduction of VLDL cholesterol level at 300 mg/kg, po QD for 4 days; format: functional; parameters: scale not given: the % may be the effect or the level left
Mus musculus [9] = experiment: Hypolipidemic effect on diabetic KKAy mouse model assessed as reduction of plasma triglyceride level at 1 mg/kg, po QD for 4 days; format: functional; parameters: scale not given: the % may be the effect or the level left
[10] = target: T5, Peroxisome proliferator-activated receptor delta (Homo sapiens, UniProt Q03181); experiment: Agonist activity at human PPARdelta expressed in monkey CV1 cells by transactivation assay; format: functional, cell-based, CV-1
T5 sequence (Q03181 whole entry): T1 sequence (whole entry)

[11] = target: T6, Peroxisome proliferator-activated receptor alpha (Homo sapiens) (UniProt Q07869); experiment: Agonist activity at human PPARalpha expressed in monkey CV1 cells at 10 uM by transactivation assay; format: functional, cell-based; settings: CV-1
T6 sequence (whole entry): T3 sequence (Q07869 whole entry)

[12] = target: T7, Peroxisome proliferator-activated receptor delta (Mus musculus) (UniProt P35396); experiment: Agonist activity at mouse PPARdelta at 10 uM by transactivation assay; format: functional
T7 sequence (whole entry): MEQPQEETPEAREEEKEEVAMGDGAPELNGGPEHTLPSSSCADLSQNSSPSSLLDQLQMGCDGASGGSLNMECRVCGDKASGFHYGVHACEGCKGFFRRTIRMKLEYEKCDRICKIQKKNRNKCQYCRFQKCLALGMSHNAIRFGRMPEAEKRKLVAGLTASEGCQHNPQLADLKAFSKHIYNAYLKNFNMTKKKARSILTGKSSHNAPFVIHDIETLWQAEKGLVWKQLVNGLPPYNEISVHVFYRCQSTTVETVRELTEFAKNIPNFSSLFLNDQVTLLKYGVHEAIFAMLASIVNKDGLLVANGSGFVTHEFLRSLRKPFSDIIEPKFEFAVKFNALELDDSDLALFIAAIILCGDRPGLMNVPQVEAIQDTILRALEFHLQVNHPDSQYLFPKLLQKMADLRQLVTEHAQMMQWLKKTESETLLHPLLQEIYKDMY

Mus musculus [13] = experiment: Hypolipidemic effect on diabetic KKAy mouse model assessed as reduction of VLDL cholesterol level at 3 mg/kg, po QD for 4 days; format: functional; parameters: scale not given: the % may be the effect or the level left
Mus musculus [14] = experiment: Hypoglycemic effect on diabetic KKAy mouse model assessed as reduction of plasma glucose level at 3 mg/kg, po QD for 4 days; format: functional; parameters: scale not given: the % may be the effect or the level left
Mus musculus [15] = experiment: (§1) Hypolipidemic effect on diabetic KKAy mouse model assessed as increase in HDL cholesterol level at 3 mg/kg, po QD for 4 days; format: functional
Mus musculus [16] = experiment: Hypolipidemic effect on diabetic KKAy mouse model assessed as reduction of plasma triglyceride level at 3 mg/kg, po QD for 4 days; format: functional; parameters: scale not given: the % may be the effect or the level left
Homo sapiens [17] = species: Homo sapiens; experiment: Selectivity of human PPARalpha over human PPARdelta
Homo sapiens [18] = species: Homo sapiens; experiment: Selectivity of human PPARalpha over human PPARgamma
Mus musculus [19] = experiment: Hypolipidemic effect on diabetic KKAy mouse model assessed as reduction of VLDL cholesterol level at 1 mg/kg, po QD for 4 days; format: functional; parameters: scale not given: the % may be the effect or the level left
Mus musculus [20] = experiment: as §1; format: functional; remark: listed apart in the source
[21] = target: T8, Peroxisome proliferator-activated receptor gamma (Mus musculus) (UniProt P37238); experiment: Agonist activity at mouse PPARgamma at 10 uM by transactivation assay; format: functional
T8 sequence (whole entry): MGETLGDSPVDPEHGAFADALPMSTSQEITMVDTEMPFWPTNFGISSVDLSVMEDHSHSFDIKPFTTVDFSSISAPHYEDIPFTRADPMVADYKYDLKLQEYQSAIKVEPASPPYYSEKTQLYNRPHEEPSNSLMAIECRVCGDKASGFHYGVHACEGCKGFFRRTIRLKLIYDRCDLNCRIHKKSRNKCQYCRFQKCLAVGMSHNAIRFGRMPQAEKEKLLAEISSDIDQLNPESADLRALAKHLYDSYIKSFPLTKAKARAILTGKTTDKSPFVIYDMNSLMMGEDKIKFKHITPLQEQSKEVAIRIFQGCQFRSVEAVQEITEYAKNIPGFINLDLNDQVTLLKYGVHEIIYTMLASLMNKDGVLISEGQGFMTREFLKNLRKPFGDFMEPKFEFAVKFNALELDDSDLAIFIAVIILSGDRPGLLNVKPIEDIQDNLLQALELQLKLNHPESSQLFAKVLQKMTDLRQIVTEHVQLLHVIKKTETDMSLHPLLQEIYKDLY

Mus musculus [22] = experiment: Hypoglycemic effect on diabetic KKAy mouse model assessed as reduction of plasma glucose level at 1 mg/kg, po QD for 4 days; format: functional; parameters: scale not given: the % may be the effect or the level left
[23] = target: T9, Peroxisome proliferator-activated receptor alpha (Mus musculus, UniProt P23204); experiment: Agonist activity at mouse PPARalpha by transactivation assay; format: functional
T9 sequence (P23204 whole entry): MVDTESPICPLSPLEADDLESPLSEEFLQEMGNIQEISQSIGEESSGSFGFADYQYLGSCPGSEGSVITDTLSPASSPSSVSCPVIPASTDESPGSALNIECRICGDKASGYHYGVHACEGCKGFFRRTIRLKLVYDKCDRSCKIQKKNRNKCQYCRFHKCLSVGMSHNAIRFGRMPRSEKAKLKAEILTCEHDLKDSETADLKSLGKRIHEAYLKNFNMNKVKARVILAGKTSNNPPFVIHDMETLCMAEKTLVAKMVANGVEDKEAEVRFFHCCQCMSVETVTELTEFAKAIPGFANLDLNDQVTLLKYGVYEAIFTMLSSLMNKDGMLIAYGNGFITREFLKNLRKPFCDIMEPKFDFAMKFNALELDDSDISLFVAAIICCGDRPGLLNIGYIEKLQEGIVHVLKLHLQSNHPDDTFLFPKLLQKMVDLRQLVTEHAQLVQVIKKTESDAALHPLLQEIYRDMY

[24] = target: T10, Peroxisome proliferator-activated receptor gamma (Mus musculus, UniProt P37238); experiment: Agonist activity at mouse PPARgamma by transactivation assay; format: functional
T10 sequence (P37238 whole entry): T8 sequence (whole entry)

Cc1oc(-c2ccccc2)nc1CCCC[C@H]1CO[C@](C)(C(=O)O)OC1
Activity [1]: 10% | pEC50 [2]: 4.52 | pEC50 [3]: 5.52

Cc1oc(-c2ccccc2)nc1Cc1cccc([C@H]2CO[C@@](C)(C(=O)O)OC2)c1
Activity [1]: 7% | Activity [4]: 12% | pEC50 [3]: 5.52

CC(C)OC(=O)C(C)(C)Oc1ccc(C(=O)c2ccc(Cl)cc2)cc1 [FENOFIBRATE]
Activity (Mus musculus [5]): 17% | Activity (Mus musculus [6]): 25% | Activity (Mus musculus [7]): 40% | Activity (Mus musculus [8]): 31%

Cc1oc(-c2ccccc2)nc1CCCCCCOC(C)(C)C(=O)O
Activity (Mus musculus [9]): 32% | pEC50 [10]: 4.52 | pEC50 [2]: 6.52

CC(C)(Oc1ccc(CCNC(=O)c2ccc(Cl)cc2)cc1)C(=O)O [BEZAFIBRATE]
pEC50 [2]: 4.00

Cc1oc(-c2ccccc2)nc1Cc1ccc([C@H]2CO[C@@](C)(C(=O)O)OC2)cc1
Activity [11]: 5% | Activity [1]: 0% | Activity [4]: 10%

Cc1oc(-c2ccccc2)nc1CCCC[C@H]1CO[C@@](C)(C(=O)O)OC1
Activity (Mus musculus [9]): 46% | Activity [12]: 6% | Activity (Mus musculus [13]): 49% | Activity (Mus musculus [14]): 13% | Activity (Mus musculus [15]): 36% | Activity (Mus musculus [16]): 56% | Ratio EC50 (Homo sapiens [17]): > 300 | Activity [1]: 0% | Ratio EC50 (Homo sapiens [18]): > 300 | Activity (Mus musculus [19]): 29% | Activity (Mus musculus [20]): 55% | Activity [21]: 21% | Activity (Mus musculus [22]): 12%

Cc1oc(-c2ccccc2)nc1Cc1ccc(C[C@H]2CO[C@@](C)(C(=O)O)OC2)cc1
Activity [1]: 38% | pEC50 [2]: 5.52 | pEC50 [3]: 5.52

Cc1oc(-c2ccccc2)nc1Cc1cccc(C[C@H]2CO[C@@](C)(C(=O)O)OC2)c1
Activity [1]: 28% | pEC50 [2]: 6.00 | pEC50 [3]: 5.52

Cc1oc(-c2ccccc2)nc1CCCC[C@H]1CO[C@@](CC(C)C)(C(=O)O)OC1
Activity [1]: 6% | pEC50 [2]: 5.00 | pEC50 [3]: 7.52

Cc1oc(-c2ccccc2)nc1CCCCC[C@H]1CO[C@@](C)(C(=O)O)OC1
Activity [1]: 34% | pEC50 [2]: 6.52 | pEC50 [3]: 7.00

Cc1oc(-c2ccccc2)nc1CCCC[C@H]1CO[C@@H](C(=O)O)OC1
Activity [11]: 8% | Activity [1]: 3% | Activity [4]: 0%

Cc1oc(-c2ccccc2)nc1CCC[C@H]1CO[C@@](C)(C(=O)O)OC1
Activity [11]: 8% | Activity [1]: 12% | Activity [4]: 2%

CC[C@]1(C(=O)O)OC[C@@H](CCCCc2nc(-c3ccccc3)oc2C)CO1
Activity [12]: 7% | Activity (Mus musculus [13]): 26% | Activity (Mus musculus [14]): 18% | pEC50 [23]: 7.00 | Activity (Mus musculus [16]): 52% | pEC50 [24]: 5.00 | Activity [1]: 19% | pEC50 [2]: 5.00 | Activity (Mus musculus [20]): 5% | pEC50 [3]: 7.52
